US8344113B2, “Diagnostic tumor markers, drug screening for tumorigenesis inhibition, and compositions and methods for treatment of cancer” (Minerva Biotechnologies Corporation, priority 2000, dated 2013)
No end group written: not given here.

Tests used:
[1] = test system: T47D cells; experiment: Cell proliferation assay, MUC1 tumor cells treated with drug candidates; type: cell-based, human; conditions: for Cell growth (percent cell growth over 48 hours): T47D cells; for Selective inhibition of proliferation of MUC1-expressing tumor cells over control cells: T47D versus K293, 48 hours
Method: (§1) T47D cells, mammary carcinoma cells known to overexpress MUC1, were grown in the wells of an ELISA plate along with K293 cells, human embryonic kidney cells which will serve as the negative control. 100 μl cells in growth media were added to the wells of an ELISA plate and the cells were allowed to adhere overnight. The number of cells in each well on the plate were then counted and recorded. 1 μl of a drug candidate in DMSO was then added to each well of both the T47D cells and the K293 cells. 1 μl DMSO alone was added to control wells. Each well was repeated in triplet. The cells were allowed to grow for 48 hours, the normal doubling time for these cell lines. The number of cells in each well was again counted and recorded. The percent cell growth over this 48-hour period was calculated, and the percent cell growth for wells containing a drug candidate versus DMSO were compared. […] Cell growth in the presence of Etomoxir was […] for T47D cells and 94% for control cells (K293); Cell growth in the presence of L-alpha-methyl-DOPA was 20% for T47D cells and 110% for control cells (K293); Cell growth in the presence of Fusaric acid was 27.7% for T47D cells, and 106.7% for control cells (K293); Cell growth in the absence of any drug (but with an equivalent amount of DMSO added) was 91.3% for T47D cells, and 106.2% for control cells (K293).

[2] = test system: K293 cells; experiment: Cell proliferation assay, negative control cells treated with drug candidates; type: cell-based, human
Method: as §1

[3] = target: T1, MGFR portion of the MUC1 receptor and its activating ligand(s) (Homo sapiens, UniProt P15941, R1131P); experiment: Colloid-based color-change drug screening assay (His-PSMGFR colloids plus T47D cell lysate); type: binding; conditions: final drug concentration approximately 100 μM
T1 construct: made in house; host or cells: chemical synthesis (synthetic peptide)
T1 sequence (P15941 with tags, fused parts or gaps R1131P): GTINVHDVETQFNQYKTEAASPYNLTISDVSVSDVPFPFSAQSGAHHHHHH
Method: In a typical example, 1.5 ml of commercially available gold colloid (Auro Dye by Amersham) were pelleted by centrifugation in a microfuge on high for 10 minutes. The pellet was resuspended in 100 μL of the storage buffer (sodium citrate and tween-20). 100 μL of a dimethyl formamide (DMF) solution containing thiols. Following a 3-hour incubation in the thiol solution, the colloids were pelleted and the supernatant discarded. They were then heat cycled in 100 μL of 400 μM tri-ethylene glycol-terminated thiol in DMF for 2 minutes at 55° C., 2 minutes at 37° C., 1 minute at 55° C., 2 minutes at 37° C., then room temperature for 10 minutes. Heat cycling results in the elimination of any species that are not in the lowest energy confirmation, resulting in a stable, close-packed, self-assembled monolayer. Heat cycling can be carried out with any of a wide variety of self-assembled monolayer-forming species. The colloids were then pelleted and 100 μL 100 mM NaCl phosphate buffer were added. The colloids were then diluted 1:1 with 180 μM NiSO4 in the colloid storage buffer.
Thiols used in coating colloids typically were derived from solutions containing about 40 μM nitrilo tri-acetic acid (NTA)-thiol, and other thiols such as methyl-terminated thiol (HS—(CH2)15 CH3), 40% tri-ethylene glycol-terminated thiol, HS(CH2)11[…], (formula) and 50% poly(ethynylphenyl) thiol (C16H10S).
Colloid aggregation can be sensitively detected by monitoring color change of colloid particles which are initially disperse in suspension. Aggregation results in a color change to blue. No auxiliary signaling entity is necessary. In drug screening, aggregation (or lack thereof) is observed in the presence of candidate drugs.
The following is an example of a working drug screening assay to identify anti-cancer agents. In this example, a histidine-tagged peptide derived from the portion of the MUC1 receptor that remains attached to the cell surface after receptor cleavage (His-PSMGFR) was attached to NTA-nickel-SAM-coated gold colloids. The peptide-presenting colloids were incubated with lysates/supernatants from MUC1 presenting cells that were shown herein to contain ligands that cause dimerization or multimerization of that portion of the MUC1 receptor. This ligand-induced multimerization of the MGFR portion of the receptor causes the attached colloids to be drawn close together, which causes a change in the color of the colloid solution from pink to blue. Drugs that interfere with the binding of activating ligands to the MGFR portion of the receptor cause the solution to remain pink.
Negative control wells contained colloids bound with a random sequence histidine-tagged peptide in place of the MUC1 peptide. […] The well containing colloids that presented the PSMGFR peptide plus T47D cell lysates (Well A) changed color from pink to blue, indicating the presence of a multimerizing ligand. Wells that contained a random sequence peptide (RGD) in place of the PSMGFR peptide (Well B) remained pink. Wells that contained phosphate buffer in place of cell lysate also remained pink (Wells C and D).
T47D cells were trypsinized from a T25 flask, pelleted, resuspended in phosphate buffer, and lysed by sonication to release the ligand into solution. NTA-SAM-coated colloids were bound with the His-PSMGFR peptide:
200 μl NTA-SAM-coated colloids were incubated with 20 μl 100 μM peptide in phosphate buffer for 15 minutes, pelleted to remove unbound peptide, and resuspended in phosphate buffer. […]

[4] = target: T2, PSMGFR peptide (Homo sapiens, UniProt P15941, R1131P); experiment: Co-elution of drugs with bead-immobilized His-PSMGFR peptide (HPLC / TLC); type: binding; conditions: eluates from NTA-nickel beads analyzed by TLC
T2 construct: made in house; host or cells: chemical synthesis (synthetic peptide)
T2 sequence (P15941 with tags, fused parts or gaps R1131P): T1 sequence (P15941 with tags, fused parts or gaps R1131P)
Method: The His-PSMGFR peptide was attached to NTA-nickel agarose beads then separately incubated with each of the drug candidates. 100 μl beads were bound to saturation with 1 mg peptide, rinsed to remove unbound peptide, and incubated with 25 μl 2.7 mg/ml drug candidate in DMSO for one hour in 5 ml phosphate buffer. Unbound drugs were washed away with phosphate buffer, and the peptide was eluted from the beads with PBS, 250 mM imidazole. If the drug candidate bound to the peptide, it would co-elute with the peptide in the imidazole solution. Peptide-drug complexes were then separated by HPLC. HPLC elution peaks from the complex were compared to the elution peaks from the drug, injected alone, and the PSMGFR peptide alone.
In a similar experiment, eluates from the beads were analyzed by TLC (thin layer chromatography). Two drugs, calcimycin and NS1619 which could be tracked by TLC, because they fluoresced under UV light, were tested. NTA-nickel bead-immobilized peptides were incubated with the drugs as described above, rinsed and eluted from the beads, then rotoevaporated to remove the aqueous buffer. The solid was then resuspended in ethylacetate, 5% methanol and spotted on TLC plates then run in the same organic solvent. […] Calcimycin, gave a clear blue spot under 250 nm UV light and ran at a less polar position (as expected) than the peptide itself. […]

[5] = test system: T47D cells; experiment: Modulation of the inhibitory effect of Etomoxir on cell proliferation by added PSMGFR; type: cell-based, human
Method: The following experiment was performed in triplicate. T47D cells were grown to approximately 30% confluency. […] Then, a synthetic peptide (PSMGFR) was added to the cell growth media under normal cell growth conditions.

[6] = test system: MUC1 receptor fragments (self-aggregation); experiment: Colloid color-change self-aggregation assay of MUC1-derived peptides; type: binding, human; conditions: peptide on NTA-Ni colloids
Method: Histidine-tagged peptides were synthesized with the sequences shown in table 1 (the various regions of MUC1). The lyophilized peptides were dissolved in DMSO to give a final concentration of 5 mM. A stock solution of each peptide was made by dissolving 4 μl 5 mM DMSO stock in 196 μl Phosphate-Buffered-Saline (PBS) for a resulting concentration of 100 μM. 20 μl of each 100 μM peptide solution was added to 100 μl colloids presenting NTA-Ni to capture the histidine tag of the peptides. The colloids were incubated with the histidine-tagged peptides at room temperature for 10 minutes to allow binding of the histidine-tags to the NTA-Ni on the surface of the colloids. 20 μl aliquots of each peptides species on colloids was then mixed with 20 μl of every other peptide species and with 60 μl of phosphate buffer pH 7.4. The color change of the colloid solutions was recorded after 15 minutes, see FIG. 2. Row A contains the His-PSIBR (primary sequence interchain binding region) peptide; Row B contains the His-TR peptide; Row C contains the His-RM2 peptide; Row D contains the His-PSMGFR peptide. Column 1 contains the His-PSIBR peptide; Column 2 contains the His-TR peptide; Column 3 contains the His-RM2 peptide; and Column 4 contains the His-PSMGFR peptide. […] During this period, the set of colloids incubated with the His-PSIBR peptide changed color from pink to blue. Only the well of Row A, Column 1, which is the cross section of PSIBR with itself, turned from pink to blue within the first 10 minutes.
The colloid sets were centrifuged to form a pellet and were resuspended in phosphate buffer. […] Since there was only one peptide species on the colloids, the binding interaction must be the PSIBR peptide binding to itself. The other sets of colloids bound to peptides were assayed for their interaction with one another by mixing 15 μl of one colloid type with 15 μl of a second colloid type and 70 μl phosphate buffer.
The peptide was attached to colloid particles presenting NTA thiols, as in other experiments described herein. […]

| Compound | Cell growth (percent cell growth over 48 hours) [2] | Interruption of the interaction of MGFR with its ligand(s) (colloid solution stays pink) [3] | Self-aggregation of colloid-immobilized peptide (color change pink to blue) [6] | other results |
| --- | --- | --- | --- | --- |
| CCCCc1ccc(C(=O)O)nc1 [Fusaric acid] | 106.7% | – | – | Cell growth (percent cell growth over 48 hours) [1]: 27.7% |
| CNc1ccc2oc(C[C@H]3O[C@@]4(CC[C@H]3C)O[C@H]([C@H](C)C(=O)c3ccc[nH]3)[C@H](C)C[C@H]4C)nc2c1C(=O)O [calcimycin] | – | interrupt the interaction of MGFR with its ligand(s) | – | Direct binding to PSMGFR peptide (co-elution, TLC) [4]: co-eluted with the PSMGFR peptide |
| PSMGFR: Primary Sequence of the MUC1 Growth Factor Receptor, SEQ ID NO: 7 (GTINVHDVETQFNQYKTEAASPYNLTISDVSVSDVPFPFSAQSGA; Primary Sequence of the MUC1 Growth Factor Receptor (PSMGFR)) | – | – | – | Cell proliferation after adding peptide to Etomoxir-treated cells ([5]; Etomoxir approx. 100 micromolar present): increased cell proliferation |
| ESMGFR: Histidine-tagged Extended Sequence of MUC1 Growth Factor Receptor, SEQ ID NO: 3 (VQLTLAFREGTINVHDVETQFNQYKTEAASPYNLTISDVSVSDVPFPFHHHHHH; “Extended Sequence of the MUC1 Growth Factor Receptor” (ESMGFR)) | – | – | self-aggregated | – |
| PSIBR: Primary Sequence of the Interchain Binding Region; tested histidine-tagged, SEQ ID NO: 4 (GFLGLSNIKFRPGSVVVQLTLAFRE; not fully specified (N-terminus); also: tested histidine-tagged, tag position not given here) | – | – | self-aggregates in a high affinity interaction | – |
| O=c1[nH]c2cc(C(F)(F)F)ccc2n1-c1cc(C(F)(F)F)ccc1O [NS1619] | – | interrupt the interaction of MGFR with its ligand(s) | – | Direct binding to PSMGFR peptide (co-elution, TLC) [4]: co-eluted with the PSMGFR peptide |
| C[C@](N)(Cc1ccc(O)c(O)c1)C(=O)O [L-alpha-methyl-DOPA] | 110% | interrupt the interaction of MGFR with its ligand(s) | – | Cell growth (percent cell growth over 48 hours) [1]: 20%; Selective inhibition of proliferation of MUC1-expressing tumor cells over control cells [1]: selectively inhibited proliferation of the MUC1-expressing tumor cells over K293 negative control cells |
| CCOC(=O)[C@@]1(CCCCCCOc2ccc(Cl)cc2)CO1 [Etomoxir] | 94% | interrupt the interaction of MGFR with its ligand(s) | – | Selective inhibition of proliferation of MUC1-expressing tumor cells over control cells [1]: selectively inhibited proliferation of the MUC1-expressing tumor cells over K293 negative control cells; Cell proliferation in the presence of drug ([5]; approx. 100 micromolar): arrested |
| CCCC[C@@]1(C2CCCC2)Cc2cc(OCC(=O)O)c(Cl)c(Cl)c2C1=O [butylindazone] | – | interrupt the interaction of MGFR with its ligand(s) | – | – |
| His-PSMGFR: Histidine-tagged PSMGFR peptide, SEQ ID NO: 2 (GTINVHDVETQFNQYKTEAASPYNLTISDVSVSDVPFPFSAQSGAHHHHHH; His-PSMGFR peptides) | – | – | completely free of self-aggregation | – |
